Laboratory results as given in patent US11890335B2, “ErbB peptide pharmaceutical and vaccine compositions and therapeutic uses thereof for cancer” (L2 Diagnostics, LLC, priority 2017, dated 2024).
Entries after “also recorded” stand apart in the source; their conditions may differ. *1 amine or outer side, *2 acyl side, *3 side chain or, on linkers, in order; H or OH if unused. Where a SMILES comes first, the peptide text is derived from it. [ ]: non-standard residue; d: D form. βAsp = O=C(O)[C@H](CC(=O)[*:2])N[*:1]

Legend:
A431 cells [1] = test: ADCC assay with human PBMC, A431 cells; type: cell-based; conditions: 1:25 serum or 20 μg/ml antibody, human PBMC 50:1, 4 h
Description: (§1) All experimental sera were heat-inactivated (56° C., 30 min) prior to use. A431 or MDA-MB-453 cells were incubated with a 1:25 dilution of heat-inactivated sera or control antibody (20 μg/ml) 30 min at 37° C. in 96-well U bottom plates. Freshly isolated human peripheral blood mononuclear cells (PBMC) from healthy donors were incubated with antibody coated target cells at a 50:1 effector to target ratio for 4 h at 37° C. Fifty microliters of each cell culture supernatant was then assayed for lactate dehydrogenase released from dead cells using the CytoTox96 Non-Radioactive Cytotoxicity Assay (Promega) per manufacturer's instructions. Percent cytotoxicity was calculated as [(experimental-effector spontaneous-target spontaneous)/(target maximum-target spontaneous)]×100.

[2] = mouse, in vivo
MDA-MB-453 cells [3] = test: ADCC assay with human PBMC, MDA-MB-453 cells; type: cell-based; conditions: 1:25 serum or 20 μg/ml antibody, human PBMC 50:1, 4 h, compared to rituximab
Description: as §1

human EGFR on A431 cells = test: Flow cytometry, binding to A431 cells; conditions: for Staining of A431 cells by flow cytometry: serum 1:100 or cetuximab 5 μg/ml
Description: (§2) Cells (10^5 cells/sample) were stained with a 1:100 dilution of serum in PBS with 0.1% BSA and 0.05% sodium azide for 1 h at 4° C. Cells were washed and incubated with a 1:100 dilution of either anti-mouse IgG fluorescein isothiocyanate (FITC; Sigma) or anti-human IgG AlexaFluor 488 (Molecular Probes, Invitrogen) for 1 h at 4° C. Some samples were further stained using anti-FITC AlexaFluor 488. Cells were washed and fixed in PBS+1% paraformaldehyde. Cells were analyzed on a FACSCalibur (BD Biosciences) with FlowJo software (Tree Star). Controls included unstained cells and cells stained with secondary antibody alone.

EGFR peptides = test: ELISA, antisera against the panel of EGFR peptides; type: binding, murine (mu) and human (hu); conditions: 100 μg peptide in CFA, boost in IFA, sera day 28
From the text: (§3) Female Balb/c or female C57BL/6 mice, 6-8 weeks old, were obtained from the National Cancer Institute. All mice were housed at the Yale University School of Medicine Animal Facility. All protocols were consistent with accepted guidelines of the National Institutes of Health for the care and use of laboratory animals as well as approved by the Yale University Institutional Animal Care and Use Committee. For the generation of antibody, three to five Balb/c or C57BL/6 mice per group were immunized intraperitoneally and subcutaneously in one footpad with 100 μg of peptide emulsified 1:1 of PBS and complete Freund's adjuvant (CFA). Twenty-one days later, mice were boosted intraperitoneally and subcutaneously in the other footpad with 100 μg of immunizing peptide emulsified in incomplete Freund's adjuvant (IFA). Sera were collected via retro-orbital bleed at day 28 for antibody analyses. For T cell assays, mice were immunized by the same route of administration with 100 μg of peptide emulsified 1:1 in CFA. […]
Polystyrene microtiter plates (Nunc) were coated with either 50 μg/ml peptide or 1 μg of rHER2 or rHER3 extracellular domains in buffer (0.05 M carbonate-bicarbonate buffer, pH 9.6; Sigma) and incubated overnight at 4° C. […] Wells were read on a SpectraMax 450 ELISA reader (Molecular Dynamics) at 405 nm.

HER4 p578 peptide = target: T1, HER4 p578 peptide (Homo sapiens, UniProt Q15303); test: ELISA, immune serum binding to HER4 p578 peptide; conditions: data not shown
T1 construct: host or cells: chemical synthesis
Description: (§4) Polystyrene microtiter plates (Nunc) were coated with either 50 μg/ml peptide or 1 μg of rHER2 or rHER3 extracellular domains in buffer (0.05 M carbonate-bicarbonate buffer, pH 9.6; Sigma) and incubated overnight at 4° C. Wells were washed, blocked with PBS containing 3% bovine serum albumin (BSA) followed by the addition of serum samples (1:100 dilution) for 2 h at room temperature. Alkaline phosphatase conjugated-goat anti-mouse IgG antibody (Southern Biotech) was added to the wells at a 1:1000 dilution and incubated at room temperature for 1.5 h. Wells were washed one last time, and developed by the addition of the substrate p-nitrophenyl phosphate (Sigma). Wells were read on a SpectraMax 450 ELISA reader (Molecular Dynamics) at 405 nm.

TUBO-EGFR cells = test: In vivo tumor assay, TUBO-EGFR cells s.c. in immunized mice; conditions: immunized Balb/c mice, days 11, 13 and 18
From the text: as §3
Female Balb/c mice were immunized with either Asp or isoAsp EGFR p580 as described above for the generation of antibody. […] Tumor volume was calculated by measuring three orthogonal axes (a, b, and c) with digital calipers, with the tumor volume=abc/2 (Cho H S et al. (2003) Nature 421:756-60).

[4] = tested on: MDA-MB-453 cells (HER2-positive, EGFR-negative); test: Flow cytometry, binding to MDA-MB-453 cells; parameters: species or system human; conditions: serum 1:100 or antibody 5 μg/ml
Description: as §2

HER2 p585 peptide = target: T2, HER2 p585 peptide (Homo sapiens, UniProt P04626); test: ELISA, immune serum binding to HER2 p585 peptide; conditions: sera from Balb/c mice
T2 construct: host or cells: chemical synthesis
Description: as §4

[5] = target: T3, recombinant HER3 extracellular domain (Homo sapiens, UniProt P21860); test: ELISA, immune serum binding to recombinant HER3 extracellular domain; conditions: serum 1:100 dilution
T3 construct: Recombinant human HER3 extracellular domain was purchased from R&D Systems; purchased R&D Systems
T3 sequence (P21860 20-643 limits assumed): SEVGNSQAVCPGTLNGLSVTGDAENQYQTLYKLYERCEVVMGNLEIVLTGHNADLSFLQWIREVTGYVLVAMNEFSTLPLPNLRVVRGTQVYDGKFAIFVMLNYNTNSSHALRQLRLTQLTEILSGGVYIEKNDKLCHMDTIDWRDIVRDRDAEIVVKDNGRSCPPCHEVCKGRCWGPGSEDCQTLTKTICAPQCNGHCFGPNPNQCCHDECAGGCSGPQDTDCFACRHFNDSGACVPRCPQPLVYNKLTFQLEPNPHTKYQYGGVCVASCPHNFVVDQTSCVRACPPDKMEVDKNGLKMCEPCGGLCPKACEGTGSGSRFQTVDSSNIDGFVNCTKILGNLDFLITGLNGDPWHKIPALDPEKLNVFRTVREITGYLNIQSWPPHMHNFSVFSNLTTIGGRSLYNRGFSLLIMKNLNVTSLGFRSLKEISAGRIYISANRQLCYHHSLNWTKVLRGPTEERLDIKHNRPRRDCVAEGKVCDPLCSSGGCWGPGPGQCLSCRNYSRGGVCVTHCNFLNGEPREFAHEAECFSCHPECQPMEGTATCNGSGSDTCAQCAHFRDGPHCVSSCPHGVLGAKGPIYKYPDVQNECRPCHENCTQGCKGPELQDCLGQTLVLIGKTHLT
Description: as §4

HER3 p574 peptide = target: T4, HER3 p574 peptide (Homo sapiens, UniProt P21860); test: ELISA, immune serum binding to HER3 p574 peptide; conditions: sera from Balb/c mice
T4 construct: host or cells: chemical synthesis
Description: as §4

[6] = tested on: T cells from EGFR p580 immunized mice; test: T cell proliferation assay, 3H-thymidine; type: cell-based; conditions: lymph node cells of immunized C57BL/6 mice re-stimulated 72 h with peptide
[7] = target: T5, recombinant HER2 extracellular domain (Homo sapiens, UniProt P04626); test: ELISA, immune serum binding to recombinant HER2 extracellular domain; conditions: serum 1:100 dilution
T5 construct: The extracellular domain of HER2 was a kind gift of Dr. Daniel Leahy
Description: as §4

MDA-MB-453 cells [8] = conditions: control antibodies, 10-40 mg/ml concentrations tested
Description: Cells were incubated for three days with 1:25 dilutions of sera from either Asp or isoAsp p580 immunized Balb/c mice. Cell proliferation was measured by 3H-thymidine incorporation.

A431 cells [9] = conditions: isotype control 10 μg/ml, data not shown
native HER2 = native HER2 (Homo sapiens, UniProt P04626); conditions: Garrett J T et al. (2007); cited from earlier work

| Compound | Staining of A431 cells by flow cytometry (human EGFR on A431 cells) | Antibodies elicited by immunization, binding to EGFR peptides by ELISA (EGFR peptides) | Immune serum binding to homologous HER4 p578 peptide (HER4 p578 peptide) | Tumor size versus adjuvant alone (PBS-CFA) (TUBO-EGFR cells) | Binding to MDA-MB-453 cells by flow cytometry [4] | Immune serum binding to HER2 p585 peptide by ELISA (HER2 p585 peptide) | Immune serum binding to HER3 extracellular domain by ELISA [5] | Immune serum binding to HER3 p574 peptide by ELISA (HER3 p574 peptide) | T cell response to Asp and iso-Asp p580 [6] | Immune serum binding to HER2 extracellular domain by ELISA [7] | also measured |
| --- | --- | --- | --- | --- | --- | --- | --- | --- | --- | --- | --- |
| IQCAHYIDGPHCVKTCPAG [EGFR p580, EGFR peptide p580-598, isoform not specified at the place (Asp and iso-Asp isoforms)] | bind to the EGFR overexpressing human A431 epidermoid carcinoma cell line at an epitope distinct from that recognized by cetuximab | – | – | – | – | – | – | – | – | – | ADCC killing of A431 cells (A431 cells [1]): exhibited significant killing; Autoimmunity, fur loss or skin pathology in immunized mice [2]: no signs of aberrant tissue autoimmunity; ADCC killing of MDA-MB-453 cells (MDA-MB-453 cells [3]): significantly induced ADCC killing |
| CC[C@H](C)[C@H](N)C(=O)N[C@@H](CCC(N)=O)C(=O)N[C@@H](CS)C(=O)N[C@@H](C)C(=O)N[C@@H](Cc1c[nH]cn1)C(=O)N[C@@H](Cc1ccc(O)cc1)C(=O)N[C@H](C(=O)N[C@@H](CC(=O)NCC(=O)N1CCC[C@H]1C(=O)N[C@@H](Cc1c[nH]cn1)C(=O)N[C@@H](CS)C(=O)N[C@H](C(=O)N[C@@H](CCCCN)C(=O)N[C@H](C(=O)N[C@@H](CS)C(=O)N1CCC[C@H]1C(=O)N[C@@H](C)C(=O)NCC(=O)O)[C@@H](C)O)C(C)C)C(=O)O)[C@@H](C)CC [isoAsp EGFR p580] (H-IQCAHYI[βAsp]GPHCVKTCPAG-OH; N-terminus and C-terminus assumed) | – | sera bound strongly to both isoforms of p572 and Asp 596 | neither Asp nor isoAsp EGFR p580 antisera bound | significantly smaller tumors | showed affinity | bound | bound | bound | more robust response | bound | Immune serum binding to homologous HER4 p578 peptide (HER4 p578 peptide; listed as iso-Asp EGFR p580): neither the Asp nor iso-Asp EGFR p580 antiserum bound; Binding to A431 cells relative to Asp-isoform counterpart (human EGFR on A431 cells; flow cytometry): ~10 fold; Shift in staining intensity of A431 cells (human EGFR on A431 cells; immune sera, flow cytometry): > 10 fold |
| Rituximab: human anti-CD20 monoclonal antibody | – | – | – | – | – | – | – | – | – | – | MDA-MB-453 cell growth inhibition (MDA-MB-453 cells [8]): failed to inhibit; A431 cell growth inhibition (A431 cells [9]): did not inhibit any A431 growth |
| CC[C@H](C)[C@H](N)C(=O)N[C@@H](CCC(N)=O)C(=O)N[C@@H](CS)C(=O)N[C@@H](C)C(=O)N[C@@H](Cc1c[nH]cn1)C(=O)N[C@@H](Cc1ccc(O)cc1)C(=O)N[C@H](C(=O)N[C@@H](CC(=O)O)C(=O)NCC(=O)N1CCC[C@H]1C(=O)N[C@@H](Cc1c[nH]cn1)C(=O)N[C@@H](CS)C(=O)N[C@H](C(=O)N[C@@H](CCCCN)C(=O)N[C@H](C(=O)N[C@@H](CS)C(=O)N1CCC[C@H]1C(=O)N[C@@H](C)C(=O)NCC(=O)O)[C@@H](C)O)C(C)C)[C@@H](C)CC [Asp EGFR p580] (H-IQCAHYIDGPHCVKTCPAG-OH; N-terminus and C-terminus assumed) | stained A431 cells above that seen with pre-immune sera | generated antibodies against Asp and iso-Asp p580, as well as Asp and iso-Asp p572 and Asp p596 | neither Asp nor isoAsp EGFR p580 antisera bound; also recorded: neither the Asp nor iso-Asp EGFR p580 antiserum bound | significantly smaller tumors | showed affinity | bound | bound | bound | strong T cell responses to both Asp and iso-Asp p580 | bound | – |
| VACAHYKDPPFCVA [p585-598 HER2 peptide] | – | – | – | – | – | – | – | – | – | – | Elicited antibodies binding to native HER2 (native HER2): failed to elicit antibodies that bound strongly to native HER2 |
